Here are results for 24 molecules from patent US7531557B2, “Diaryl ethers as opioid receptor antagonists” (Eli Lilly and Company, priority 2002, dated 2009).

Assay [1] concerns mu, delta and kappa receptors in rat striatum/nucleus accumbens. Kind of assay: Ex-vivo receptor binding of 3H-diprenorphine in rat brain after oral dosing. The conditions noted are these: 7 mg/kg p.o., 6 hours after administration, striatum/nucleus accumbens homogenate, versus vehicle.
Assay [2] concerns Diet Induced Obese Rat. Kind of assay: Indirect calorimetry assay (food consumption, energy balance). The class given is in vivo. The conditions noted are these: for minimal effective dose: Rattus norvegicus, po, lowest dose with food consumption over 24 hours significantly different from vehicle, read-out: Inhibition of Feeding Diet Induced Obese Rat Minimum Effective Dose (MED); for Energy Balance Diet Induced Obese Rat: test dose 3 mg/kg, p.o., energy balance = caloric intake minus utilization. The protocol: Indirect Calorimetry Assay
Twenty-four-hour energy expenditure (EE) and respiratory quotient (RQ) were measured by indirect calorimetry using an open circuit calorimetry system (Oxymax, Columbus Instruments Int. Corp., USA). RQ is the ratio of the volume of CO2 produced (VCO2) to the volume of O2 consumed (VO2). EE was calculated as the product of calorific value of oxygen (CV) and VO2 per kilogram of body weight, where CV=3.815+1.232 (RQ). Total calories expended were calculated to determine daily fuel utilization. To calculate the proportion of protein, fat and carbohydrate that is used during that 24-hour period, we used Flatt's proposal (see, Flatt J P 1991 Assessment of daily and cumulative carbohydrate and fat balances in mice. J Nutr Biochem 2:193-202.) and formulae as well as other derived constants (see Elia M, Livesey G 1992 Energy expenditure and fuel selection in biological systems: the theory and practice of calculations based on indirect calorimetry and tracer methods. World Rev Nutr Diet 70:68-131.). Food consumption over the 24-hour period was also measured. […] Results obtained for a sample of compounds of the invention with the indirect calorimetry assay are shown below in Table 4.

Assay [3] deals with kappa opioid receptor (KOR) (Homo sapiens, UniProt P41145). Kind of assay: SPA-based GTP-γ-S binding assay, antagonist mode, kappa. It counts as biochemical. Particulars: antagonist assay against U69593 300 nM; Kb by Cheng-Prusoff equation; read-out: In Vitro Antagonism GTP-γ-S Kb Kappa. How it is done: (§1) An SPA—based GTP-γ-S assay format was developed based on previous opioid (Emmerson et al., J. Pharm Exp Ther 278, 1121, 1996; Horng et al., Society for Neuroscience Abstracts, 434.6, 2000) and muscarinic (DeLapp et al., JPET 289, 946, 1999) assay formats. Membranes were re-suspended in 20 mM HEPES, 100 mM NaCl, 5 mM MgCl2, 1 mM DTT, and 1 mM EDTA. Fifty (50) […] of GTP-γ-[35S], compound, membrane suspension (20 microgram/well), and wheat germ agglutinin coated SPA beads (1 mg/well) were added to clear bottom 96 well assay plates. GDP ([…]) was added to the membrane solution prior to addition to the assay plates. Plates were sealed and incubated for four hours at room temperature then placed in a refrigerator overnight to allow the beads to settle. Signal stability at 4° C. was determined to be >60 hours. Plates were warmed to room temperature and counted in a Wallac Microbeta scintillation counter. For antagonist assays, specific agonists were added at the following concentrations: (MOR) DAMGO 1 micromolar, (DOR) DPDPE 30 nM, (KOR) U69593 300 nM. Kb's were determined by Cheng-Prusoff equation (see Cheng and Prusoff, Biochem. Pharmacol. 22, 3099, 1973).
Chain of kappa opioid receptor (KOR) (P41145 whole entry): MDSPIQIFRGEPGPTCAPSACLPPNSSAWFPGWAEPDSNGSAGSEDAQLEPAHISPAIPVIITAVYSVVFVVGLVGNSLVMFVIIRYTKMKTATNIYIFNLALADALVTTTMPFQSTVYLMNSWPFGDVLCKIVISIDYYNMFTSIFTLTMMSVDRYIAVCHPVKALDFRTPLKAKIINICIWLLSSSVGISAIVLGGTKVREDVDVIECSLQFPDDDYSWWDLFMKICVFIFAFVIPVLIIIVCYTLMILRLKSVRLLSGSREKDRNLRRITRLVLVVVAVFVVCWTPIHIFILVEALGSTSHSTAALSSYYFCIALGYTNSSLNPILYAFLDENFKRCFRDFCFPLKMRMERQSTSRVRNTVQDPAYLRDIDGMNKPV
(Binding of GTPγS marks nucleotide exchange on a G protein.)

For assay [4], the target named is mu opioid receptor (MOR) (Homo sapiens, UniProt P35372). Kind of assay: SPA-based GTP-γ-S binding assay, antagonist mode, mu. It counts as biochemical. Particulars: antagonist assay against DAMGO 1 micromolar; Kb by Cheng-Prusoff equation; read-out: In Vitro Antagonism GTP-γ-S Kb Mu. The protocol: as §1
Chain of mu opioid receptor (MOR) (P35372 whole entry): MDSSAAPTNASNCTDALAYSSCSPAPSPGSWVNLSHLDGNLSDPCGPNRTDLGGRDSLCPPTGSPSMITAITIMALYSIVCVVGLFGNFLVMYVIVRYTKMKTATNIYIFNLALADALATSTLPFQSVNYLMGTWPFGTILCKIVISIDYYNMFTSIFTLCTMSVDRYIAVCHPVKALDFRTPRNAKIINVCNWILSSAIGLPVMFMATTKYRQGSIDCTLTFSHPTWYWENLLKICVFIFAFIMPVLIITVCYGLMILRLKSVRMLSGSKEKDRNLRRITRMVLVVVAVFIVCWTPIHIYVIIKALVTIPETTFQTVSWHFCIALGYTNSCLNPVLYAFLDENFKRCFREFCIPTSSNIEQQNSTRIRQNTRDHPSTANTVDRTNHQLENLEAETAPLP
Assay [5] concerns the target delta opioid receptor (DOR) (Homo sapiens, UniProt P41143). Kind of assay: SPA-based GTP-γ-S binding assay, antagonist mode, delta. The class given is biochemical. Particulars: antagonist assay against DPDPE 30 nM; Kb by Cheng-Prusoff equation; read-out: In Vitro Antagonism GTP-γ-S Kb Delta. The protocol: as §1

Structures can show the parent of a compound that is named as a salt.

Chain of delta opioid receptor (DOR) (P41143 whole entry): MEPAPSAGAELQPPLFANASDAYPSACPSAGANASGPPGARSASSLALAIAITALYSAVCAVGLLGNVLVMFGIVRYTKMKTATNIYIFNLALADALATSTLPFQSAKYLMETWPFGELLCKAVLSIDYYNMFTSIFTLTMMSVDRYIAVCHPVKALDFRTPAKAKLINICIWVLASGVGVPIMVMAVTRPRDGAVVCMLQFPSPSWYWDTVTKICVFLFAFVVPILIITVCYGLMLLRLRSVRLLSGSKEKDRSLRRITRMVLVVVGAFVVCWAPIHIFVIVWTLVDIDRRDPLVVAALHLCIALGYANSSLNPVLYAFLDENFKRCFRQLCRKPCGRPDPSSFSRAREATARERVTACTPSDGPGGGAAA

As to `Cc1cc(CNCCC(C)C)ccc1Oc1ccc(C(N)=O)cn1` [Example 227, 6-[2-Methyl-4-(3-methyl-butylamino-methyl)-phenoxy]nicotinamide], in assay [1], the “Ex Vivo Binding [3H]-Diprenorphine % Inhibition of at 6 hours 7 mg/kg of test compound” value is on record as 55%. In assay [2], the minimal effective dose amounted to 0.3 mg/kg and the “Energy Balance Diet Induced Obese Rat” value is -68 kcal/kg/day.
On to `CC(C)CCNCc1ccc(Oc2ccc(C(N)=O)cn2)c(F)c1` [Example 228, 6-[2-Fluoro-4-(3-methyl-butylamino-methyl)-phenoxy]nicotinamide], for which, in assay [1], the “Ex Vivo Binding [3H]-Diprenorphine % Inhibition of at 6 hours 7 mg/kg of test compound” value is over 65%. Also, in assay [2], the minimal effective dose came out at 0.3 mg/kg and the “Energy Balance Diet Induced Obese Rat” value is -81 kcal/kg/day.
As to `CC(C)CCNCc1ccc(Oc2ccc(C(N)=O)cn2)c(Cl)c1` [Example 229, 6-[2-Chloro-4-(3-methyl-butylamino-methyl)-phenoxy]nicotinamide], the “Ex Vivo Binding [3H]-Diprenorphine % Inhibition of at 6 hours 7 mg/kg of test compound” value in assay [1] came to 77%.
On the same count and under the same terms, to `Cc1cc(CNCCC(C)(C)C)ccc1Oc1ccc(C(N)=O)cn1` [Example 238, 6-{4-[(3,3-Dimethyl-butylamino)-methyl]-2-methyl-phenoxy}-nicotinamide] belongs 59%.
On the same count and under the same terms, to `CCCCNCc1ccc(Oc2ccc(C(N)=O)cn2)c(C)c1` [Example 240, 6-(4-Butylaminomethyl-2-methyl-phenoxy)-nicotinamide] belongs 38%; to `Cc1cc(CNCCC(C)C)ccc1Oc1ccc(C(N)=O)cc1F` [Example 246, 3-Fluoro-4-{2-methyl-4-[(3-methyl-butylamino)-methyl]-phenoxy}-benzamide], 58%.
Turning to `NC(=O)c1ccc(Oc2ccc(CNCCc3cccs3)cc2)nc1` [Example 253, 6-{4-[(2-Thiophen-2-yl-ethylamino)-methyl]-phenoxy}-nicotinamide], the Kb in assay [3] is 0.355 nM; in assay [4], 0.068 nM; in assay [5], 0.708 nM. Moreover, in assay [1], the “Ex Vivo Binding [3H]-Diprenorphine % Inhibition of at 6 hours 7 mg/kg of test compound” value is recorded as over 40%. Further, the minimal effective dose in assay [2] is at most 3 mg/kg. For the same molecule, the “Energy Balance Diet Induced Obese Rat” value in assay [2] was -19 kcal/kg/day.
With `NC(=O)c1ccc(Oc2ccc(CNCCc3cccc(F)c3)cc2)nc1` [Example 256, 6-(4-{[2-(3-Fluoro-phenyl)-ethylamino]-methyl}-phenoxy)-nicotinamide], the results for the Kb in assay [3], in assay [4] and in assay [5] were 0.894 nM, 0.072 nM and 0.677 nM, respectively. For the same molecule, in assay [1], the “Ex Vivo Binding [3H]-Diprenorphine % Inhibition of at 6 hours 7 mg/kg of test compound” value turned out to be 40%.
With `CC(C)(C)CCNCc1ccc(Oc2ccc(C(N)=O)cn2)cc1` [Example 263, 6-{4-[(3,3-Dimethyl-butylamino)-methyl]-phenoxy}-nicotinamide], in assay [1], the “Ex Vivo Binding [3H]-Diprenorphine % Inhibition of at 6 hours 7 mg/kg of test compound” value is listed as 62%. Moreover, in assay [2], the minimal effective dose was at most 3 mg/kg and the “Energy Balance Diet Induced Obese Rat” value is -56 kcal/kg/day.
As to `CC(C)CCNCc1ccc(Oc2ccc(C(N)=O)cn2)cc1` [Example 271, 6-{4-[(3-Methyl-butylamino)-methyl]-phenoxy}-nicotinamide], the Kb was found to be 0.4 nM in assay [3], 0.2 nM in assay [4] and 4.4 nM in assay [5]. Also, the “Ex Vivo Binding [3H]-Diprenorphine % Inhibition of at 6 hours 7 mg/kg of test compound” value in assay [1] was over 40%. Besides, the minimal effective dose in assay [2] was 0.3 mg/kg. The “Energy Balance Diet Induced Obese Rat” value in assay [2] was -35 kcal/kg/day.
In the case of `NC(=O)c1ccc(Oc2ccc(CNCCC3CCCCC3)cc2)nc1` [Example 272, 6-{4-[(2-Cyclohexyl-ethylamino)-methyl]-phenoxy}-nicotinamide], the “Ex Vivo Binding [3H]-Diprenorphine % Inhibition of at 6 hours 7 mg/kg of test compound” value in assay [1] is on record as 79%.
With `NC(=O)c1ccc(Oc2ccc(CNCCc3ccc(F)cc3)cc2)cc1` [Example 294, 4-(4-{[2-(4-Fluoro-phenyl)-ethylamino]-methyl}-phenoxy)-benzamide], the “Ex Vivo Binding [3H]-Diprenorphine % Inhibition of at 6 hours 7 mg/kg of test compound” value in assay [1] turned out to be 50%.
As to `NC(=O)c1ccc(Oc2ccc(CNCCC3CCCC3)cc2)nc1` [Example 309, 6-{4-[(2-Cyclopentyl-ethylamino)-methyl]-phenoxy}-nicotinamide], the “Ex Vivo Binding [3H]-Diprenorphine % Inhibition of at 6 hours 7 mg/kg of test compound” value in assay [1] was over 60%. Moreover, in assay [2], the minimal effective dose is at most 3 mg/kg and the “Energy Balance Diet Induced Obese Rat” value was -39 kcal/kg/day.
In the case of `CCCCCNCc1ccc(Oc2ccc(C(N)=O)nc2)c(F)c1` [Example 405, 5-(2-Fluoro-4-pentylaminomethylphenoxy)pyridine-2-carboxamide], the “Ex Vivo Binding [3H]-Diprenorphine % Inhibition of at 6 hours 7 mg/kg of test compound” value in assay [1] came to 55%.
On the same count and under the same terms, the result for `CCCCCNCc1ccc(Oc2ccc(C(N)=O)cn2)c(OC)c1` [Example 420, 6-(2-Methoxy-4-pentylaminomethylphenoxy)nicotinamide] reads 75%; that for `COc1cc(CNCCc2ccccc2F)ccc1Oc1ccc(C(N)=O)cn1` [Example 431, 6-(4-{[2-(2-fluorophenyl)ethylamino]methyl}-2-methoxyphenoxy)nicotinamide], 54%.
Same read-out and setting: the result for `COc1cc(CNCCC(C)(C)C)ccc1Oc1ccc(C(N)=O)cn1.CS(=O)(=O)O` [Example 446, 6-{4-[(3,3-Dimethylbutylamino)methyl]-2-methoxyphenoxy}nicotinamide methanesulfonate] reads 55%; that for `NC(=O)c1ccc(Oc2ccc3c(c2)CCCN(CCc2ccccc2)C3)nc1` [Example 447, 6-(2-Phenethyl-2,3,4,5-tetrahydro-1H-benzo[c]azepin-7-yloxy)nicotinamide], 62%.
For the molecule `NC(=O)c1ccc(Oc2ccc(CCNCc3ccccc3)cc2Cl)nc1` [Example 475, 6-[4-(2-Benzylamino-ethyl)-2-chloro-phenoxy]-nicotinamide], the Kb in assay [3] stood at 7.86 nM; in assay [4], 0.843 nM; in assay [5] it was 17.5 nM.
The matching figures for `Cc1ccccc1CNCCc1ccc(Oc2ccc(C(N)=O)cn2)c(Cl)c1` [Example 476, 6-{2-Chloro-4-[2-(2-methyl-benzylamino)-ethyl]-phenoxy}-nicotinamide]: 3.38 nM, 0.281 nM and 8.9 nM.
In the case of `NC(=O)c1ccc(Oc2ccc(CCNCc3cccc(F)c3)cc2Cl)nc1` [Example 478, 6-{2-Chloro-4-[2-(3-fluoro-benzylamino)-ethyl]-phenoxy}-nicotinamide], the Kb in assay [3] is 4.5 nM; in assay [4], 0.41 nM; in assay [5] it was 5.78 nM.
For `NC(=O)c1ccc(Oc2ccc(CCNCc3cccc(Cl)c3)cc2Cl)nc1` [Example 479, 6-{2-Chloro-4-[2-(3-chloro-benzylamino)-ethyl]-phenoxy}-nicotinamide], in that order: 6.86 nM, 0.503 nM and 30.1 nM.
As for `CC(C)(C)CCNCc1ccc(Oc2ccc(C(N)=O)cn2)c(Cl)c1` [Example 481, 6-{2-Chloro-4-[(3,3-dimethylbutylamino)-methyl]-phenoxy}-nicotinamide], the “Ex Vivo Binding [3H]-Diprenorphine % Inhibition of at 6 hours 7 mg/kg of test compound” value in assay [1] was 83%.
On to `O=C1CC[C@@]2(O)[C@H]3Cc4ccc(O)c5c4[C@@]2(CCN3CC2CC2)[C@H]1O5` [Naltrexone ®, Naltrexone HCl, reference compound], for which the “Ex Vivo Binding [3H]-Diprenorphine % Inhibition of at 6 hours 7 mg/kg of test compound” value in assay [1] was under 40%. Moreover, in assay [2], the minimal effective dose was over 10 mg/kg and the “Energy Balance Diet Induced Obese Rat” value was “Not significant”.
